Experimental data published in publication PMC5607274, “An iterative compound screening contest method for identifying target protein inhibitors using the tyrosine-protein kinase Yes” (Scientific Reports, 2017).

biological target: T1, human recombinant Yes [a.a. 2–543 (end)] (Homo sapiens, UniProt P07947); test: ADP-Glo kinase assay, inhibition rates of Yes phosphorylation activity (first and second screening); format: biochemical; settings: first screening; mean of n = 4 wells; 10 μmol L−1 compound
T1 construct: human recombinant Yes [a.a; 2–543 (end)]; purchased BPS Bioscience 40488
Procedure, shortened: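 ADP-Glo luminescence measured inhibition of human recombinant Yes (a.a. 2–543) phosphorylation activity. In the first screen, each compound ran in 4 wells and inhibition rates were averaged. The second screen retested hits as compounds dissolved from fresh powder.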

T1 sequence (P07947 2-543): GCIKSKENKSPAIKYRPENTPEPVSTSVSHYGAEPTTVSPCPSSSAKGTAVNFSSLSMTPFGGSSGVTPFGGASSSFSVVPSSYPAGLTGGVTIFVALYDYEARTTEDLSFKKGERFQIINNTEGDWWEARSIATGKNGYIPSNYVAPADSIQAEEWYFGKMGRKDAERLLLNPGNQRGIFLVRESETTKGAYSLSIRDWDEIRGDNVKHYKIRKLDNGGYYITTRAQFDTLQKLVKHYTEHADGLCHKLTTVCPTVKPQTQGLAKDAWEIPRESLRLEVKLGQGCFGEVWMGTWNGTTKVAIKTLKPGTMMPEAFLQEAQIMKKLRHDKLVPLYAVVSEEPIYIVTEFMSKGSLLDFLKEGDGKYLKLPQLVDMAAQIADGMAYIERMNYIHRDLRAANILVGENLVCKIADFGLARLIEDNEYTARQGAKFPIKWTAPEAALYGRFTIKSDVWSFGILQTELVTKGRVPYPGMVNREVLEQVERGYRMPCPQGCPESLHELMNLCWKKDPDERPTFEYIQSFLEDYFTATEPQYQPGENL

Row | SMILES | First screening IR (inhibition rate) [%]
1 | CSc1ccc(CSCc2nc(N)nc(Nc3ccccc3)n2)cc1 [Compound Z99558919] | -15
2 | CNS(=O)(=O)c1ccc(NC(=O)c2cn(-c3ccccc3)nc2-c2cccnc2)cc1 [Compound Z101840388] | 11
3 | O=C(NCCNc1ncc(C(F)(F)F)cc1Cl)c1ccc2nc[nH]c2c1 [Compound Z101998542] | 25
4 | CC(=O)c1c(C)[nH]c(C(=O)NCCCn2cnc3ccccc32)c1C [Compound Z102448822] | 20
5 | c1ccc(-n2ncc3c(SCCc4ccncc4)ncnc32)cc1 [Compound Z103069550] | 11
6 | CCCCn1c(CN2CCN(C(=O)c3ccco3)CC2)nc2c1c(=O)[nH]c(=O)n2Cc1ccccc1 [Compound Z104777504] | -22
7 | CCCCn1c(CN2CCN(c3ncccn3)CC2)nc2c1c(=O)[nH]c(=O)n2Cc1ccccc1 [Compound Z104925552] | 9
8 | CCCCn1c(CN2CCN(c3ccccn3)CC2)nc2c1c(=O)[nH]c(=O)n2Cc1ccccc1 [Compound Z104935524] | 2
9 | Cc1ccccc1CN1CCN(CC(=O)c2cc(C)n(CC3CCCO3)c2C)CC1 (stereo not drawn) [Compound Z105957250] | 15
10 | Cc1cccc(C)c1NC(=O)CN1CCN(C(C(=O)N2CCCCC2)c2ccccc2)CC1 (stereo not drawn) [Compound Z106611352] | -11
11 | Cc1cc(Br)ccc1NC(=O)Cn1nc(C)c(S(=O)(=O)N2CCC(C)CC2)c1C [Compound Z107308838] | -17
12 | Oc1c(-c2nc3ccccc3c3ccccc23)sc2ncccc12 [Compound Z107727738] | 43
13 | COc1ccc(C(=O)Nc2n[nH]c(-c3ccc(F)cc3)n2)cc1 [Compound Z108548640] | 6
14 | CC(C)(Oc1ccc(Cl)cc1)C(=O)Nc1n[nH]c(-c2ccc(F)cc2)n1 [Compound Z108548764] | 16
15 | O=C(Nc1n[nH]c(-c2ccc(F)cc2)n1)c1ccccc1F [Compound Z108549754] | -11
16 | O=C(NCC1CCCCC1)c1cc(-c2ccccc2)nc2c1cnn2Cc1ccncc1 [Compound Z108748406] | 8
17 | O=C(CN1CCN(C(=O)c2cc(-c3ccccc3)nc3c2cnn3Cc2ccncc2)CC1)NC1CC1 [Compound Z109522106] | 12
18 | Cc1sc2nc(CN3CCC(C)CC3)n(CC(=O)Nc3ccc(N4CCCC4)cc3)c(=O)c2c1C [Compound Z112958446] | -4
19 | Cc1cc(-c2ccccc2)nc(SC(C)C(=O)Nc2sc3c(c2C(N)=O)CCC3)n1 (stereo not drawn) [Compound Z114120486] | -3
20 | COc1cc(/C=C/C(=O)c2ccc3c(c2)NC(=O)CO3)ccc1O [Compound Z114950222] | 1
21 | CCCN(CCC)c1ccc(/C=C/C(=O)c2ccc3c(c2)NC(=O)CO3)cc1 [Compound Z114950486] | 26
22 | Cc1nc(-c2ccsc2)sc1C(=O)Nc1ccc(Cl)cc1F [Compound Z115004236] | 6
23 | CN(Cc1cnn(-c2ccccc2)c1)C(=O)c1ccc(Cl)c(S(=O)(=O)N2CCCCCC2)c1 [Compound Z115152726] | 4
24 | O=C(NC1CCS(=O)(=O)C1)c1nc(Cl)c(Cl)c(Cl)c1Cl (stereo not drawn) [Compound Z118688092] | -7
25 | O=C(Nc1ccc2[nH]c(=O)[nH]c2c1)c1occc1-c1ccccc1 [Compound Z118811128] | 19

The next lines start with the values.

Row | First screening IR (inhibition rate) [%] | SMILES
26 | -6 | Nc1nc(N)nc(CSCc2ccc(-c3ccccc3)cc2)n1 [Compound Z99552008]
27 | 61 | O=C(Nc1ccc(S(=O)(=O)Nc2nccs2)cc1)c1cnn(Cc2ccccc2)c1 [Compound Z100622740]
28 | -3 | CSCCC(NC(=O)c1ccco1)C(=O)NCc1ccc(CN(C)C)cc1 (stereo not drawn) [Compound Z102556578]
29 | -3 | O=S(=O)(c1ccccc1C(F)(F)F)N1CCN(Cc2ncc(-c3ccc(Cl)cc3)o2)CC1 [Compound Z105146244]
30 | -5 | O=C(CN1CCSc2ccccc21)N1CCN(S(=O)(=O)c2ccc(Cl)s2)CC1 [Compound Z105335628]
31 | 1 | CCCCn1c(CN2CCN(C(=O)C3CCCO3)CC2)nc2c1c(=O)[nH]c(=O)n2Cc1ccccc1 (stereo not drawn) [Compound Z105965792]
32 | -3 | CN(C)C(=O)CN1CCN(CC(=O)Nc2cc(-c3ccc4c(c3)CCC4)nn2-c2ccccc2)CC1 [Compound Z106627256]
33 | 6 | O=C(CCCSc1ccccc1)Nc1n[nH]c(-c2ccc(F)cc2)n1 [Compound Z108549090]
34 | -2 | FC(F)(F)c1nc(N2CCOCC2)c2cnn(Cc3ccccc3)c2n1 [Compound Z108567148]
35 | 8 | O=C(Nc1nc2c(s1)CN(Cc1ccccc1)CC2)c1csc(-c2ccsc2)n1 [Compound Z108907460]
36 | -8 | CON(C)C(=O)c1cc(-c2ccccc2)nc2c1cnn2Cc1ccncc1 [Compound Z109300154]
37 | -14 | COc1ccc(Cl)cc1CN(C)C(=O)c1cc(C(C)C)nc2c1cnn2C(C)C [Compound Z110143980]
38 | 8 | COc1ccccc1C(=O)Nc1ccc(Nc2nc(-c3ccccc3)c3cc(C)ccc3n2)cc1 [Compound Z111781008]
39 | -20 | Cc1cc(SC(C)C(=O)Nc2ccc3[nH]c(=O)[nH]c3c2)nc2ccccc12 (stereo not drawn) [Compound Z112518822]
40 | 1 | CC(Sc1ccc2c(c1)CCC2)C(=O)Nc1sc2c(c1C(N)=O)CCC2 (stereo not drawn) [Compound Z113592752]
41 | 15 | Cc1cccc(-n2c(=O)c3ccccc3n3c(SCC(=O)NC(C)CCCC(C)C)nnc23)c1C (stereo not drawn) [Compound Z113967060]
42 | 9 | Cc1noc(C)c1COC(=O)CCc1nc(-c2cccs2)no1 [Compound Z114088706]
43 | 12 | Cc1noc(C)c1S(=O)(=O)N1CCN(C(=O)CCc2c(C)[nH]c(=O)c(C#N)c2C)CC1 [Compound Z115241120]
44 | 3 | O=C(NCCCN1CCCC1=O)c1cc(-c2ccccc2)nc2c1cnn2Cc1cccc(F)c1 [Compound Z116386688]
45 | 1 | NC(=O)c1cc(-c2ccccc2)nc2c1cnn2Cc1ccc(Cl)cc1 [Compound Z116821638]
46 | -16 | CN(C)C(CNC(=O)c1cc(-c2ccccc2)nc2c1cnn2Cc1ccncc1)c1ccccc1 (stereo not drawn) [Compound Z116834630]
47 | 5 | O=C(c1cc(-c2ccccc2)nc2c1cnn2Cc1cccc(F)c1)N1CCC1 [Compound Z117073454]
48 | 2 | Cc1cc(=O)c(C(=O)N2CCC(C(=O)N3CCCCCC3)CC2)nn1-c1ccccc1F [Compound Z117548264]
49 | 9 | CCN(CC)Cc1ccccc1CNC(=O)c1c(C)nn(-c2ccc(F)cc2)c1C [Compound Z117807680]
50 | -5 | Cc1ccc(Nc2ccnc(Nc3ccc(C)cc3)n2)cc1 [Compound Z118512882]

same assay, conditions: second screening, dissolved from fresh powder; n = 4; 10 μmol L−1 compound

Row | Second screening IR (inhibition rate) [%] | SMILES
51 | 24 | Oc1c(-c2nc3ccccc3c3ccccc23)sc2ncccc12 [Compound Z107727738]
